Experiment [1] concerns the target JAK 1 (Homo sapiens, UniProt P23458). The note with it: cited from earlier work.
In experiment [2] the test system is vitiligo lesions. Kind of experiment: Proof of Concept, double blind, vehicle-controlled study of ARQ-252 cream 0.3% BID with NB-UVB home phototherapy in non-segmental facial vitiligo. The experiment is classed as in vivo, human. Conditions: applied topically in combination with narrowband UVB phototherapy, compared to vehicle cream plus narrowband UVB. The source says: A Proof of Concept, parallel group, double blind, vehicle-controlled study of the safety and efficacy of a 0.3% SHR0302 topical cream of Example 1 (ARQ-252 cream 0.3%) was designed for subjects with non-segmental facial vitiligo. Subjects with non-segmental facial vitiligo applied either ARQ-252 0.3% cream BID or vehicle cream BID to all affected areas of vitiligo on the face, neck, hands, forearms, and elbows. Product was applied to all affected, depigmented areas and, where anatomically possible, treatment extended approximately 3 cm from the border all around. […]
The two patients were assessed by measures including Facial Vitiligo Area and Severity Index (F-VASI), Facial Body Surface Area (F-BSA), Facial/Neck BSA (F/N-BSA), BSA (Hands, Forearms, Elbows), Facial/Neck VASI (F/N-VASI), VASI of the forearms and elbow (FOREARM-VASI) and VASI of the hands only (HAND-VASI). […] VASI is a quantitative clinical tool that is based on a composite estimate of the overall area of vitiligo patches at baseline and the degree of macular repigmentation within these patches over time. […] BSA affected with vitiligo will be assessed as a percentage of the total BSA, and will be determined to the nearest 0.01% using, as guides, the palm plus 5 digits, with fingers tucked together and thumb tucked to the side (handprint), as 1% BSA and the thumb as 0.1% BSA. […]

SMILES strings stand for the structures.

Sequence of JAK 1 (P23458 whole entry, species assumed): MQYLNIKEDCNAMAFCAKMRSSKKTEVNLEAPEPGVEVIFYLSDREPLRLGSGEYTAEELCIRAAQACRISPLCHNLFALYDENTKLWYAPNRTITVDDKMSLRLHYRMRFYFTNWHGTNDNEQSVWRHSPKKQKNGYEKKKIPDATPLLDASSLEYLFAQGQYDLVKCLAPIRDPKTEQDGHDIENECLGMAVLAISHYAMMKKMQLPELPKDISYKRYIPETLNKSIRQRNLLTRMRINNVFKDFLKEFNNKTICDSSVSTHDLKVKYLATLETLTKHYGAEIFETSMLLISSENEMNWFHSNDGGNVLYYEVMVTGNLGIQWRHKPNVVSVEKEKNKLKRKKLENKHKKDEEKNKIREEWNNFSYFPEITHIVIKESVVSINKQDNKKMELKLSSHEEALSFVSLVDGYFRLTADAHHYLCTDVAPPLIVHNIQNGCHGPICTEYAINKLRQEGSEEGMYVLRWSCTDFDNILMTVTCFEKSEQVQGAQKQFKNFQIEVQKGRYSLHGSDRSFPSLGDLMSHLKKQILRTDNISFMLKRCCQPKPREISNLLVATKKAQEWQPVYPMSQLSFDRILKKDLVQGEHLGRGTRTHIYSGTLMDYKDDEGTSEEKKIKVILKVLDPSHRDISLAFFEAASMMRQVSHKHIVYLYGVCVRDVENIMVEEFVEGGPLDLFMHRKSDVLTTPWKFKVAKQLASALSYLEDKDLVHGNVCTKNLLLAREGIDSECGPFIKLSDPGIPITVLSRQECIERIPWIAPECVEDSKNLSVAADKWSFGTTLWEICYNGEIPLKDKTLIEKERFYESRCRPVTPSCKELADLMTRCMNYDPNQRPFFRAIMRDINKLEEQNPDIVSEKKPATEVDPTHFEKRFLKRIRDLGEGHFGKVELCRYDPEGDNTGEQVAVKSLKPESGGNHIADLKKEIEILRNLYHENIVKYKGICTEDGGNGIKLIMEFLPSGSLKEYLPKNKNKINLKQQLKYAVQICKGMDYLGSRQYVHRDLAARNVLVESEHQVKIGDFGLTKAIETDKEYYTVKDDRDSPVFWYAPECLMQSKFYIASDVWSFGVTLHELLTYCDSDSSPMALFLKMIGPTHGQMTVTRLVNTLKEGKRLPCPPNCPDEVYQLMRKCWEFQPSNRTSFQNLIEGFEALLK

`COc1nsc(NC(=O)N2C[C@H]3C[C@H](N(C)c4ncnc5[nH]ccc45)C[C@H]3C2)n1` [SHR0302, (3aR,5S,6aS)—N-(3-methoxyl-1,2,4-thiadiazol-5-yl)-5-(methyl(7H-pyrrolo[2,3-d]pyrimidin-4-yl)amino)hexahydrocyclopenta[c]pyrrole-2(1H)-carboxamide]: in experiment [1], the “inhibition of JAK 1” value was “potent” and the “selectivity for JAK1 over JAK2” value is recorded as “high selectively for JAK1 over JAK2”. The “repigmentation of vitiligo lesions” value in experiment [2] is “dramatically repigmented”.
